This note sets out measurements from PMC10401651, “Characterization of Uranyl (UO2^2+) Ion Binding to Amyloid Beta (Aβ) Peptides: Effects on Aβ Structure and Aggregation” (ACS Chemical Neuroscience, 2023).

One assay concerns the target T1, Aβ40 peptide (Homo sapiens, UniProt P05067).
T1 construct: namely, the Aβ40 peptide and the Aβ40 (H6A, H13A, and H14A) triple-mutant; purchased AlexoTech AB (Umeå, Sweden); host or cells: recombinant
Description: Binding affinity via Tyr10 fluorescence quenching, Aβ40. Conditions: for Kd: 20 μM Aβ40. Here is the method: Fluorescence measurements were conducted on a Jobin Yvon Horiba Fluorolog 3 fluorescence spectrophotometer (Longjumeau, France) using a quartz cuvette with a 4 mm path length. […] Apparent dissociation constants (KD^App) were determined by fitting the plots to eq 2 [drawing 2] 2 where I0 is the initial fluorescence intensity with no added UO2^2+ ions, I∞ is the steady-state intensity at the end of the titration, [Ab] is the protein concentration, and [U] is the concentration of added UO2^2+ ions.[121],[160]

Assay [1] has as its target T2, Aβ42 oligomers (Homo sapiens, UniProt P05067).
T2 construct: Synthetic lyophilized wt Aβ (1–42) peptides, abbreviated as Aβ42; purchased JPT Peptide Technologies (Germany); host or cells: synthetic peptide
Put plainly: BN-PAGE analysis of SDS-stabilized Aβ42 oligomer formation. The class given is biochemical. As for the experimental part:
Treatment of Aβ42 peptides with low concentrations (≤7 mM) of SDS, i.e., below the critical micelle concentration for SDS, which is 8.2 mM in water at 25 °C,[152] leads to the formation of stable and homogeneous Aβ42 oligomers of certain sizes and conformations.[131],[132],[153] To prepare such oligomers, size exclusion chromatography (SEC) was initially used to purify synthetic Aβ42 peptides into monomeric form. First, 1 mg of lyophilized Aβ42 powder was dissolved in […] of DMSO. Next, a […] HiTrap desalting column (GE Healthcare, Uppsala) was equilibrated with a 5 mM NaOH solution (pH = 12.3) and washed with a solution of 10–15 mL of 5 mM NaOD, pD = 12.7.[154] The peptide solution in DMSO was applied to the column, followed by an injection of 1.25 mL of 5 mM NaOD. The collection of peptide fractions in 5 mM NaOD on ice was started at a […] flow rate. Ten fractions of 1 mL volumes were collected in 1.5 mL Eppendorf tubes. The absorbance for each fraction at 280 nm was measured with a NanoDrop instrument (Eppendorf, Germany), and peptide concentrations were determined using a molar extinction coefficient of 1280 M^–1 cm^–1 for the single Tyr in Aβ42.[155] The peptide fractions were flash-frozen in liquid nitrogen, covered with argon gas on top in 1.5 mL Eppendorf tubes, and stored at −80 °C until used. SDS-stabilized Aβ42 oligomers of two well-defined sizes (approximately tetramers and dodecamers) were prepared according to a previously published protocol,[131] but in D2O, at a 4-fold lower peptide concentration and without the original dilution step.[132]
Thus, 4–16% Bis–Tris Novex gels (Thermo Fisher Scientific, USA) were loaded with 10 μL samples containing Aβ42 oligomer solutions alongside alongside the Amersham high MW calibration kit for native electrophoresis (GE Healthcare, USA). The gels were run at 4 °C using the electrophoresis system according to the Invitrogen instructions (Thermo Fisher Scientific, USA) and then stained with the Pierce Silver Staining Kit according to the manufacturer’s instructions (Thermo Fisher Scientific, USA). […]

Assay [2] addresses T2, Aβ42 oligomers. Description: FTIR spectroscopy of SDS-stabilized Aβ42 oligomer structure. Here is the method: The secondary structures of Aβ42 oligomers formed with different SDS and uranyl concentrations were studied with FTIR spectroscopy, where the amide I region (1700–1600 cm^–1) is very sensitive to changes in the protein backbone conformation, including differences in β-sheet structures.[133]−[135] […] This split pattern of IR bands in the amide I region is typical for anti-parallel β-sheet structures.[136]−[138]
Treatment of Aβ42 peptides with low concentrations (≤7 mM) of SDS, i.e., below the critical micelle concentration for SDS, which is 8.2 mM in water at 25 °C,[152] leads to the formation of stable and homogeneous Aβ42 oligomers of certain sizes and conformations.[131],[132],[153] […] The absorbance for each fraction at 280 nm was measured with a NanoDrop instrument (Eppendorf, Germany), and peptide concentrations were determined using a molar extinction coefficient of 1280 M^–1 cm^–1 for the single Tyr in Aβ42.[155] […]
FTIR spectra of the SDS-stabilized Aβ42 oligomers (prepared as described in Section 5.2) were recorded in transmission mode on a Tensor 37 FTIR spectrometer (Bruker Optics, Germany) equipped with a sample shutter and a liquid nitrogen-cooled MCT detector. […] FTIR spectra were recorded at room temperature in the 1900–800 cm^–1 range, with 300 scans for both background and sample spectra, using a 6 mm aperture and at a resolution of 2 cm^–1. […]

Assay [3] addresses T3, Aβ40 (H6A, H13A, and H14A) triple-mutant, Aβ40 (NoHis) (Homo sapiens, UniProt P05067, H677A/H684A/H685A).
T3 construct: the Aβ40 (H6A, H13A, and H14A) triple-mutant; purchased AlexoTech AB (Umeå, Sweden); host or cells: recombinant
Put plainly: Binding affinity via Tyr10 fluorescence quenching, Aβ40 (NoHis) mutant. As to conditions: 20 μM Aβ40 (NoHis).

The mark [4] stands for this setting: pH 5.1 + 50 mM SDS, read-out: KD^App, single replicates.
The mark [5] stands for this setting: pH 5.1 + 50 mM SDS, three replicates, read-out: KD^App, average.
The mark [6] stands for this setting: pH 5.1, 20 mM MES, read-out: KD^App, single replicates.
[7] abbreviates: pH 5.1, 20 mM MES, three replicates, read-out: KD^App, average.

SMILES strings stand for the structures. Where “and” joins values, the source holds several entries; their conditions need not be identical. Equal entries are not always repeated. Where two headings read alike, the source gives them in different places.

T2 sequence (P05067 672-713 limits assumed): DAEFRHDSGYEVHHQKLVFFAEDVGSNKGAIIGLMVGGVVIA
T1 sequence (P05067 672-711 limits assumed): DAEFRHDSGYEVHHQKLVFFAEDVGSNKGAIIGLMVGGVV
T3 sequence (P05067 672-711 H677A/H684A/H685A): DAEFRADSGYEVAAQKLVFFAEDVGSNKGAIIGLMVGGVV

With `CC(=O)[O-].CC(=O)[O-].[O]=[U+2]=[O]` [uranyl ions, uranyl acetate], the “affinities for binding to Aβ peptides” value on Aβ40 peptide (general statement of the abstract) was “micromolar range”. Further, the Kd was 21.8 µM and 21.7 µM and 27.4 µM at Aβ40 peptide (setting [4]); 23.6 ± 3 µM on Aβ40 peptide (setting [5]); 14 µM and 13.7 µM and 21.3 µM on Aβ40 peptide (setting [6]); 16.3 ± 4 µM on Aβ40 peptide (setting [7]); 206 µM and 252 µM and 251 µM at Aβ40 peptide (pH 7.3 + 50 mM SDS, not to be trusted, read-out: KD^App, single replicates); 236 ± 22 µM on Aβ40 peptide (pH 7.3 + 50 mM SDS, three replicates, not to be trusted, read-out: KD^App, average). The Kd was 130 µM and 141 µM and 148 µM at Aβ40 peptide (pH 7.3, 20 mM MES, data deviate from single-site model, not to be trusted, read-out: KD^App, single replicates); 140 ± 8 µM on Aβ40 peptide (pH 7.3, 20 mM MES, three replicates, not to be trusted, read-out: KD^App, average); 22.3 µM and 30.7 µM and 27.9 µM in assay [3] (setting [4]); 27 ± 4 µM in assay [3] (setting [5]); 2.3 µM and 2.8 µM and 4 µM in assay [3] (setting [6]); 3 ± 1 µM in assay [3] (setting [7]). In addition, the “formation of AβO0.05%SDS oligomers (BN-PAGE)” value on Aβ42 oligomers [1] (0.05% SDS, 10, 100, 1000 μM uranyl acetate, 80–100 μM Aβ42) is “no well-defined uniform oligomers were observed”. Also, the “concentration required for full disruption of homogeneous AβO0.05%SDS oligomers” value at Aβ42 oligomers [1] (0.05% SDS, Aβ42 oligomers) stood at 10 µM. Also, at Aβ42 oligomers [1] (0.2% SDS, 10, 100, 1000 μM uranyl, 80–100 μM Aβ42), the “formation of AβO0.2%SDS oligomers (BN-PAGE)” value is “gradually lower amounts of stable AβO0.2%SDS oligomers”. For the same compound, the “β-sheet main band position (amide I, FTIR)” value on Aβ42 oligomers [2] (AβO0.05%SDS oligomers in PBS, 1 mM uranyl acetate (1628.3 without)) is given as 1627.8 cm^–1; at Aβ42 oligomers [2] (AβO0.2%SDS oligomers, 0.01, 0.1, and 1 mM uranyl acetate (1629.9 without)) it was 1629.8 cm^–1.
